In patent US20230337677A1, “ARYL AND PYRIDYL AMIDE PESTICIDES AND COMPOSITIONS THEREOF” (University of Florida Research Foundation, Incorporated, priority 2019, published 2023):
Like-named read-outs stand apart in the source and are kept apart here.

Experiments:
[1] = tested on: Aedes aegypti mosquitoes, insecticide-susceptible Orlando strain; assay type: in vivo; conditions: for 1 h % Repellency, 100 μg/cm^2: screened at 100 μg/cm^2, strain not given; for 1 h Repellency EC50, μg/cm^2: (OR); for 1h % repellency: Screened at μg/cm^2
Method in brief: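 Sixteen female mosquitoes per glass tube facing netting-shielded filter paper treated with acetone solutions (30-0.01 μg/ml; screen at 100 μg/cm^2), no contact. Proportion on treated side scored up to 60 min, then flight-out checked 30 min; mortality after 24 hr constant exposure.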

[2] = tested on: Aedes aegypti strain Orlando (sensitive); assay: Topical toxicity (24 hour mortality), Ae. aegypti Orlando; assay type: in vivo
Method in brief: (§1)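 Females aged 3–6 days received 200 nL of compound in ethanol topically on the thorax, 10 per concentration per replicate, and were kept at 28° C with sugar water.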

[3] = tested on: Aedes aegypti strain Puerto Rico (PR, resistant to permethrin); assay: Topical toxicity (24 hour mortality), Ae. aegypti Puerto Rico; assay type: in vivo
Protocol: The Aedes aegypti strains Orlando (sensitive) as well as the Puerto Rico (PR, resistant to permethrin) were used. The Anopheles gambiae (G3 sensitive strain, as well as Akron kdr (Akdr) strain, resistant to pyrethroids were also assessed. The larvae were provided by the USDA, Gainesville Fl, and raised in a pan with tap water maintained at 28° C. Larvae were fed a ground liver and yeast mixture, and pupae were placed in emergence cages. Adults were held at 28° C. and provided with cotton balls soaked in 10% sugar water for rearing and for all bioassays.
Female adults from 3 to 6 days were used for the experiments. The drug was dissolved in ethanol and then applied with a micro-applicator on the thorax, between the legs: 200 nL of drug per female mosquito, with different concentrations of the drug; 10 mosquitos were treated together per concentration per replicate, and put together in a small container with free access to sweet water. Mortality, i.e. no visible movement, was assessed 24 hours after treatment. Every compound was assessed on at least 3 different cohorts of mosquitoes, and the LD50 values and slopes were determined with Probit analysis, corrected with Abbott's formula.

[4] = tested on: Anopheles gambiae G3 sensitive strain; assay: Topical toxicity (24 hour mortality), An. gambiae G3; assay type: in vivo
Method in brief: as §1

[5] = tested on: Anopheles gambiae Akron kdr (Akdr) strain, resistant to pyrethroids; assay: Topical toxicity (24 hour mortality), An. gambiae Akdr; assay type: in vivo
Method in brief: as §1

[6] = tested on: Aedes aegypti mosquitoes, insecticide-susceptible Orlando strain; conditions: for 24h % mortality: Screened at μg/cm^2
[7] = tested on: Aedes aegypti mosquitoes, insecticide-susceptible Orlando strain; assay: whole plant or invertebrate; conditions: 24 h, read-out: 24 h % Mortality, 100 μg/cm^2
[8] = tested on: Aedes aegypti mosquitoes, pyrethroid-resistant Puerto Rico strain; assay: Vapor toxicity (24 h lethality under constant exposure in glass tubes), resistant strain; conditions: LC50, with resistance ratio (PR)
[9] = tested on: Aedes aegypti mosquitoes, pyrethroid-resistant Puerto Rico strain; assay: Vapor repellency glass tube assay (1 h), resistant strain; assay type: in vivo; conditions: with resistance ratio (PR)
[10] = Table 3B; Hammett substitution constant based on the ionization of benzoic acids; cited from earlier work
[11] = Mammalian toxicity, oral gavage; assay type: in vivo; conditions: ICR, in vivo; Table 3A; oral gavage; preliminary mouse screening
Protocol: (§2) Mice ([…] strain ICR, body weight between 20 and 26 g, 35 days old+/−4 days), were force fed with compounds solubilized in olive oil to a volume of 10 μL per gram of mouse via 1 mL disposable syringes attached to 22 gauge metal canulas directly in the stomach following the Institutional Animal Care and Use Committee (IACUC) standard procedure. One hour after gavage, mice were returned to food and water access ad libitum. Dose tested ranged from 60 up to 600 mg/kg of mice, following the method recommended by the US EPA to reduce the number of mice used to determine the LD50 doses. Mice were monitored after drug administration during the first hour, and then every 4 hours up to 24 hours. The surviving mice were humanely sacrificed. Any mice displaying a high state of pain/distress would also be considered as not surviving the treatment and were sacrificed before the end of the investigation. The […] was determined using the AOT425StatPgm software; the study was registered and approved by IACUC under number 201810416.

Mice (inbred strain ICR) = assay: Mammalian toxicity, oral gavage; assay type: in vivo; conditions: Table 5; preliminary mouse screening
Protocol: as §2

O=C(Nc1cc(Cl)nc(Cl)c1)C(F)(F)C(F)(F)C(F)(F)F [GMR031]
1 h % Repellency, 100 μg/cm^2 [1]: 34% | Ae. aegypti OR LD50 ([2]; topical application, 24 h mortality, female adults, susceptible Orlando strain): 34 ng/mg | Ae. aegypti RR (resistance ratio) ([3]; 24 h LD50 resistant strain (PR)/24 h LD50 susceptible strain (OR)): 0.9 | Ae. aegypti PR LD50 ([3]; topical application, 24 h mortality, female adults, permethrin-resistant Puerto Rico strain): 31 ng/mg | An. gambiae G3 LD50 ([4]; topical application, 24 h mortality, female adults, susceptible strain G3): 8.0 ng/mg | An. gambiae RR (resistance ratio) ([5]; 24 h LD50 resistant strain (AKDR)/24 h LD50 susceptible strain (G3)): 0.8 | An. gambiae AKDR LD50 ([5]; topical application, 24 h mortality, female adults, pyrethroid-resistant Akdr strain): 6.7 ng/mg | 24 h LC50, μg/cm^2 ([6]; 24 h, LC50 (OR)): 25 μg/cm^2 | mortality at 100 µg/cm2 [7]: 98% | 24 h LC50, μg/cm^2 (RR) [8]: 22 μg/cm^2

CC(=O)Nc1ccccc1C(F)(F)F [MTFI-1-4A]
1 h Repellency EC50, μg/cm^2 [1]: 26 μg/cm^2 | 1 h % Repellency, 100 μg/cm^2 [1]: 78% | 1 h Repellency EC50, μg/cm^2 (RR) [9]: 81 μg/cm^2

O=C(Nc1cc(C(F)(F)F)cc(C(F)(F)F)c1)C(F)F [MTFI-4-2B]
1 h Repellency EC50, μg/cm^2 [1]: 15 μg/cm^2 | 1 h % Repellency, 100 μg/cm^2 [1]: 100% | 1 h Repellency EC50, μg/cm^2 (RR) [9]: 24 μg/cm^2 | mortality at 100 µg/cm2 [7]: 88%

O=C(Nc1cc(F)c(F)c(F)c1)C(F)(F)C(F)(F)C(F)(F)F [MTFI-5-3A, 2,2,3,3,4,4,4-heptafluoro-N-(3,4,5-trifluorophenyl)butanamide]
1 h Repellency EC50, μg/cm^2 [1]: 2.9 μg/cm^2 | repellency EC50, compound alone ([1]; alone, FIG. 3 / FIG. 4): 2.9 μg/cm^2 | 1 h % Repellency, 100 μg/cm^2 [1]: 68% | 1 h Repellency EC50, μg/cm^2 (RR) [9]: 4.5 μg/cm^2 | 24 h LC50, μg/cm^2 ([6]; 24 h, LC50 (OR)): 13 μg/cm^2 | mortality at 100 µg/cm2 [7]: 100% | 24 h LC50, μg/cm^2 (RR) [8]: 11 μg/cm^2

C/C=C/C1C(C(=O)OCc2c(F)c(F)c(COC)c(F)c2F)C1(C)C (stereo not drawn) [Metofluthrin, metofluthrin, reference compound]
1 h Repellency EC50, μg/cm^2 [1]: 0.3 μg/cm^2 | 1 h Repellency EC50, μg/cm^2 (RR) [9]: 12 μg/cm^2 | 24 h LC50, μg/cm^2 ([6]; 24 h, LC50 (OR)): 0.84 μg/cm^2 | 24 h LC50, μg/cm^2 (RR) [8]: 43 μg/cm^2

CC1(C)[C@H](C=C(Cl)Cl)[C@H]1C(=O)OCc1c(F)c(F)cc(F)c1F [Transfluthrin, transfluthrin, reference compound]
1 h Repellency EC50, μg/cm^2 [1]: 0.5 μg/cm^2 | 1 h Repellency EC50, μg/cm^2 (RR) [9]: 2.3 μg/cm^2 | 24 h LC50, μg/cm^2 ([6]; 24 h, LC50 (OR)): 0.16 μg/cm^2 | 24 h LC50, μg/cm^2 (RR) [8]: 7.6 μg/cm^2

O=C(CCl)Nc1cccc(O)c1 [compound 2]
1h % repellency ([1]; Table 3B): 36% | σmeta [10]: 0.12

O=C(CCl)Nc1cccc(F)c1 [compound 3]
1h % repellency ([1]; Table 3B): 6% | σmeta [10]: 0.337

O=C(CCl)Nc1cccc(C(F)(F)F)c1 [compound 4]
1h % repellency ([1]; Table 3B): 50% | 24h % mortality ([6]; Table 3B): 3.13% | σmeta [10]: 0.52

O=C(Nc1c(Cl)cc(C(F)(F)F)cc1Cl)C(F)(F)C(F)(F)F [compound 41]
1h EC50 (μg/cm^2) ([1]; Table 3A): 5.30 μg/cm^2 | 1h % repellency ([1]; Table 3A): 66% | LD50 at 24 h [11]: 200 mg/kg | 24 h LC50, μg/cm^2 ([6]; Table 3A): 0.27 μg/cm^2 | 24h % mortality ([6]; Table 3A): 100%

O=C(Nc1cc(F)c(F)c(F)c1)C(F)(F)C(F)(F)C(F)(F)F [compound 52]
1h EC50 (μg/cm^2) ([1]; Table 3A): 2.92 μg/cm^2 | 1h % repellency ([1]; Table 3A): 68% | LD50 at 24 h [11]: > 2000 mg/kg | 24 h LC50, μg/cm^2 ([6]; Table 3A): 13.30 μg/cm^2 | 24h % mortality ([6]; Table 3A): 100%

O=C(Nc1c(Cl)cccc1Cl)C(F)(F)C(F)(F)F [compound 53]
1h EC50 (μg/cm^2) ([1]; Table 3A): 8.90 μg/cm^2 | LD50 at 24 h [11]: > 2000 mg/kg | 24 h LC50, μg/cm^2 ([6]; Table 3A): 7.60 μg/cm^2 | 24h % mortality ([6]; Table 3A): 100%

O=C(Nc1cc(Cl)nc(Cl)c1)C(F)(F)C(F)(F)OC(F)(F)F [compound 54]
Mouse LD50 (Mice (inbred strain ICR)): >2000 ng/mg | Ae. aegypti OR LD50 ([2]; Table 5, topical, 24 h): 17.80 ng/mg | An. gambiae G3 LD50 ([4]; Table 5, topical, 24 h): 6.04 ng/mg | An. gambiae AKDR LD50 ([5]; Table 5, topical, 24 h): 11.00 ng/mg

O=C(Nc1cc(Cl)nc(Cl)c1)C(F)(C(F)(F)F)C(F)(F)F [compound 55]
Mouse LD50 (Mice (inbred strain ICR)): ~50 ng/mg | Ae. aegypti OR LD50 ([2]; Table 5, topical, 24 h): 17.20 ng/mg | Ae. aegypti LD50 ([3]; Table 5, topical, 24 h, strain not given, line below OR): 7.10 ng/mg | An. gambiae G3 LD50 ([4]; Table 5, topical, 24 h): 5.80 ng/mg | An. gambiae AKDR LD50 ([5]; Table 5, topical, 24 h): 2.70 ng/mg

O=C(Nc1cc(Cl)nc(C(F)(F)F)c1)C(F)(F)C(F)(F)OC(F)(F)F [compound 57]
Mouse LD50 (Mice (inbred strain ICR)): >200 ng/mg | Ae. aegypti OR LD50 ([2]; Table 5, topical, 24 h): 14.90 ng/mg | An. gambiae G3 LD50 ([4]; Table 5, topical, 24 h): 13.70 ng/mg | An. gambiae AKDR LD50 ([5]; Table 5, topical, 24 h): 3.60 ng/mg
